Measured values taken from the NIST ThermoML archive (doi:10.1016/j.fluid.2015.02.007).
± gives the expanded uncertainty stated by the source.

Experiments:
[1] = Molar enthalpy of transition or fusion; conditions: Crystal; DSC
[2] = Crystal; DTA

O=C(O)c1cccnc1Nc1cccc(C(F)(F)F)c1
Molar enthalpy of transition or fusion [1]: 8.38 ± 0.182 kcal/mol | Normal melting temperature [2]: 204.00 ± 1.5 °C

Cc1c(Cl)cccc1Nc1ccccc1C(=O)O [2-[(3-chloro-2-methylphenyl)amino]benzoic acid]
Molar enthalpy of transition or fusion [1]: 7.52 ± 0.165 kcal/mol | Normal melting temperature [2]: 214.00 ± 1.1 °C

O=C(O)c1ccccc1Nc1cccc(Cl)c1Cl [clofenamic acid]
Molar enthalpy of transition or fusion [1]: 7.26 ± 0.16 kcal/mol | Normal melting temperature [2]: 171.00 ± 0.88 °C
